Measurements reported in article PMC3700073, “Synthesis and Biological Activity of New Thiopyrano[2,3-d]thiazoles Containing a Naphthoquinone Moiety” (Scientia Pharmaceutica, 2013).
Like-named read-outs stand apart in the source and are kept apart here.

Legend:
IGROV-1 (ovarian cancer) = test: NCI five-dose assay; format: cell-based; details: Homo sapiens
RXF-393 (renal cancer) = test: NCI five-dose assay; format: cell-based; details: Homo sapiens
HT29 (colon cancer) = test: NCI five-dose assay; format: cell-based; details: Homo sapiens, HT-29, HT29, colon cancer
786-0 (renal cancer) = test: NCI five-dose assay; format: cell-based; details: Homo sapiens, 786-0, 786-0, renal cancer
T-47D (breast cancer) = test: NCI five-dose assay; format: cell-based; details: Homo sapiens, T47D
NCI-H522 (NSCL cancer) = test: NCI five-dose assay; format: cell-based; details: Homo sapiens
EKVX (NSCL cancer) = test: NCI five-dose assay; format: cell-based; details: Homo sapiens
CAKI-1 (renal cancer) = test: NCI five-dose assay; format: cell-based; details: Homo sapiens, CAKI-1, CAKI-1, renal cancer
60 cancer cell lines = test: cells; details: Homo sapiens
SF-539 (CNS cancer) = test: NCI five-dose assay; format: cell-based; details: Homo sapiens, SF-539, SF-539, CNS cancer
SK-MEL-5 (melanoma) = test: NCI five-dose assay; format: cell-based, human
SK-MEL-28 (melanoma) = test: NCI five-dose assay; format: cell-based; details: Homo sapiens, SK-MEL-28, SK-MEL-28, melanoma
SK-OV-3 (ovarian cancer) = test: NCI five-dose assay; format: cell-based; details: Homo sapiens, SK-OV-3, SK-OV-3, ovarian cancer
SR (leukemia) = test: NCI five-dose assay; format: cell-based; details: Homo sapiens
OVCAR-3 (ovarian cancer) = test: NCI five-dose assay; format: cell-based; details: Homo sapiens, OVCAR-3, OVCAR-3, ovarian cancer
ACHN (renal cancer) = test: NCI five-dose assay; format: cell-based; details: Homo sapiens
HOP-62 (NSCL cancer) = test: NCI five-dose assay; format: cell-based; details: Homo sapiens, HOP-62, HOP-62, NSCL cancer
NCI-H322M (NSCL cancer) = test: NCI five-dose assay; format: cell-based; details: Homo sapiens
MOLT-4 (leukemia) = test: NCI five-dose assay; format: cell-based; details: Homo sapiens, MOLT-4, MOLT-4, leukemia
UO-31 (renal cancer) = test: NCI five-dose assay; format: cell-based; details: Homo sapiens, UO-31, UO-31, renal cancer
KM12 (colon cancer) = test: NCI five-dose assay; format: cell-based; details: Homo sapiens
DU-145 (prostate cancer) = test: NCI five-dose assay; format: cell-based; details: Homo sapiens, DU-145, DU-145, prostate cancer
HOP-92 (NSCL cancer) = test: NCI five-dose assay; format: cell-based; details: Homo sapiens, HOP-92, HOP-92, NSCL cancer
RPMI-8226 (leukemia) = test: NCI five-dose assay; format: cell-based; details: Homo sapiens, RPMI-8226, RPMI-8226, leukemia
OVCAR-4 (ovarian cancer) = test: NCI five-dose assay; format: cell-based; details: Homo sapiens, OVCAR-4, OVCAR-4, ovarian cancer
OVCAR-8 (ovarian cancer) = test: NCI five-dose assay; format: cell-based; details: Homo sapiens, OVCAR-8, OVCAR-8, ovarian cancer
A498 (renal cancer) = test: NCI five-dose assay; format: cell-based; details: Homo sapiens
[1] = tested on: NCI/ADR-RES (breast cancer); test: NCI five-dose assay; format: cell-based; details: Homo sapiens
U251 (CNS cancer) = test: NCI five-dose assay; format: cell-based; details: Homo sapiens, U-251, U251, CNS cancer
NCI-H460 (NSCL cancer) = test: NCI five-dose assay; format: cell-based; details: Homo sapiens
SF-268 (CNS cancer) = test: NCI five-dose assay; format: cell-based; details: Homo sapiens, SF-268, SF-268, CNS cancer
HCT-116 (colon cancer) = test: NCI five-dose assay; format: cell-based; details: Homo sapiens, HCT-116, HCT-116, colon cancer
K-562 (leukemia) = test: NCI five-dose assay; format: cell-based; details: Homo sapiens, K562, K-562, leukemia
SNB-19 (CNS cancer) = test: NCI five-dose assay; format: cell-based; details: Homo sapiens, SNB-19, SNB-19, CNS cancer
TK-10 (renal cancer) = test: NCI five-dose assay; format: cell-based; details: Homo sapiens, TK-10, TK-10, renal cancer
UACC-257 (melanoma) = test: NCI five-dose assay; format: cell-based, human; details: Homo sapiens, UACC-257, UACC-257, melanoma
NCI-H226 (NSCL cancer) = test: NCI five-dose assay; format: cell-based; details: Homo sapiens
UACC-62 (melanoma) = test: NCI five-dose assay; format: cell-based; details: Homo sapiens, UACC-62, UACC-62, melanoma

COc1cc(C2C3=C(Sc4[nH]c(=O)sc42)C(=O)c2ccccc2C3=O)ccc1OCc1ccccc1 (stereo not drawn) [Compound 4e, 11-[4-(Benzyloxy)-3-methoxyphenyl]-3,11-dihydro-2H-benzo[6,7]thiochromeno[2,3-d]-[1,3]thiazole-2,5,10-trione]
GI50 (IGROV-1 (ovarian cancer)): 15.4 µM
GI50 (RXF-393 (renal cancer)): 6.98 µM
GI50 (HT29 (colon cancer)): 11.2 µM
GI50 (786-0 (renal cancer)): 32.6 µM
GI50 (T-47D (breast cancer)): 16.1 µM
GI50 (NCI-H522 (NSCL cancer)): 15.9 µM
GI50 (EKVX (NSCL cancer)): 16.3 µM
GI50 (CAKI-1 (renal cancer)): 17.4 µM
GI50 (60 cancer cell lines; read-out: GI50 MG_MID, over the cell line panel): 12 µM
GI50 (60 cancer cell lines; read-out: GI50 Range (min – max), over the cell line panel): 2.62 to 32.6 µM
CC50 (60 cancer cell lines; read-out: LC50 MG_MID, over the cell line panel): 85.1 µM
CC50 (60 cancer cell lines; read-out: LC50 Range (min – max), over the cell line panel): 26.3 to 98.7 µM
GI50 (SF-539 (CNS cancer)): 16.7 µM
GI50 (SK-MEL-5 (melanoma); Homo sapiens, SK-MEL-5, SK-MEL-5, melanoma): 2.62 µM
TGI of the most sensitive cell line (SK-MEL-5 (melanoma); SK-MEL-5 /melanoma/): 2.62 / 6.90 μM
GI50 (SK-MEL-28 (melanoma)): 12.2 µM
GI50 (SK-OV-3 (ovarian cancer)): 31.7 µM
GI50 (SR (leukemia)): 13.8 µM
GI50 (OVCAR-3 (ovarian cancer)): 11.2 µM
GI50 (ACHN (renal cancer)): 17.8 µM
GI50 (HOP-62 (NSCL cancer)): 14.9 µM
GI50 (NCI-H322M (NSCL cancer)): 10.9 µM
GI50 (MOLT-4 (leukemia)): 17.3 µM
GI50 (UO-31 (renal cancer)): 5.62 µM
GI50 (KM12 (colon cancer)): 16.9 µM
GI50 (DU-145 (prostate cancer)): 4.19 µM
GI50 (HOP-92 (NSCL cancer)): 11.5 µM
GI50 (RPMI-8226 (leukemia)): 14.5 µM
GI50 (OVCAR-4 (ovarian cancer)): 4.48 µM
GI50 (OVCAR-8 (ovarian cancer)): 13.9 µM
GI50 (A498 (renal cancer)): 20.5 µM
GI50 [1]: 22.7 µM
GI50 (U251 (CNS cancer)): 15.1 µM
GI50 (NCI-H460 (NSCL cancer)): 5.39 µM
GI50 (SF-268 (CNS cancer)): 14.1 µM
GI50 (HCT-116 (colon cancer)): 15.6 µM
GI50 (K-562 (leukemia)): 19.4 µM
GI50 (SNB-19 (CNS cancer)): 11.3 µM
GI50 (TK-10 (renal cancer)): 29.7 µM
GI50 (UACC-257 (melanoma)): 11.3 µM
GI50 (NCI-H226 (NSCL cancer)): 19.2 µM
GI50 (UACC-62 (melanoma)): 12.5 µM
